In publication PMC6094398, “New tools for evaluating protein tyrosine sulfation: tyrosylprotein sulfotransferases (TPSTs) are novel targets for RAF protein kinase inhibitors” (Biochemical Journal, 2018):
Where “and” joins values, the source holds several entries; their conditions need not be identical. Identical values can stand only once. Like-named read-outs stand apart in the source and are kept apart here. Each block holds one molecule with its values, some of them ahead of it.

What was measured:
human TPST1 [1] = target: T1, human TPST1 (Homo sapiens, UniProt O60507); test: Differential scanning fluorimetry (thermal shift) assay with TPST1; format: binding; conditions: TPST1 5 µM; for Thermal shift of TPST1 in the presence of Mg2+ ions (in words): 0.5 mM nucleotide + 10 mM MgCl2; for Thermal shift of TPST1 (in words): panel of nucleotide-based cofactors
T1 construct: human TPST1 (residues Lys43–Leu360) and TPST2 (residues Gly43–Leu359) enzymes lacking the transmembrane domains; made in house; host or cells: E. coli BL21 (DE3) pLysS
T1 sequence (O60507 43-360): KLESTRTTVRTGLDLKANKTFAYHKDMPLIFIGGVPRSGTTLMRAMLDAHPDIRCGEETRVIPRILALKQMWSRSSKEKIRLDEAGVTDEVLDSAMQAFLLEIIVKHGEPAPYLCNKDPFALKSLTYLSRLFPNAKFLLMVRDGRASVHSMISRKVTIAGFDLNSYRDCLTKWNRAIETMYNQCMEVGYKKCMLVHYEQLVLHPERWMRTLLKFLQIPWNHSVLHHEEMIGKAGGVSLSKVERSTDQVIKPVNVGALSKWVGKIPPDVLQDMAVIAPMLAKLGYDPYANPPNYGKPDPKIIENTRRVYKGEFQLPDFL

human TPST2 = target: T2, human TPST2 (Homo sapiens, UniProt O60704); test: Differential scanning fluorimetry (thermal shift) assay with TPST2; format: binding; conditions: DSF, TPST2 5 µM; for Thermal shift of TPST2 in the presence of Mg2+ ions (in words): 0.5 mM nucleotide + 10 mM MgCl2; for Thermal shift of TPST2 (in words): 0.5 mM nucleotide, panel of nucleotide-based cofactors
T2 construct: TPST2 (residues Gly43–Leu359) enzymes lacking the transmembrane domains; made in house; host or cells: E. coli BL21 (DE3) pLysS
T2 sequence (O60704 43-359): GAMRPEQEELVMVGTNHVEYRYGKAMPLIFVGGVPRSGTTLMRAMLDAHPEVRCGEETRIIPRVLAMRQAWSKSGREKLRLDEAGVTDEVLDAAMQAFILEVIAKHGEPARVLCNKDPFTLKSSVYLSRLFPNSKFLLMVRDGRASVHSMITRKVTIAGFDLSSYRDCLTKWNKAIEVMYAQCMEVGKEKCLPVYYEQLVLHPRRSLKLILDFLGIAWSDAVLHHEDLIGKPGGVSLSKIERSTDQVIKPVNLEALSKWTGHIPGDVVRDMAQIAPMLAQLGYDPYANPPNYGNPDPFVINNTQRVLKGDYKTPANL

human TPST1 [2] = target: T1, human TPST1; test: EZ Reader II microfluidic mobility-shift CC4-tide sulfation assay, TPST1; format: biochemical
[3] = test system: heparin sulfate 2-O sulfotransferase HS2ST; set-up: method as in PMID 29934491; conditions: cited from earlier work
human TPST1 [4] = target: T1, human TPST1; test: GST-CC4-tide tyrosine sulfation by TPST1, immunoblotting with monoclonal sulfotyrosine antibody; format: biochemical; conditions: GST-CC4-tide 1 µg, 10 µM PAPS, increasing concentrations of inhibitor
Procedure: After the assay, proteins were denatured in Laemmli sample buffer, heated at 95°C for 5 min and then analysed by SDS–PAGE with 10% (v/v) polyacrylamide gels. Gels were stained and destained using a standard Coomassie Brilliant Blue protocol. To evaluate protein sulfation and phosphorylation by immunoblotting, standard western blotting procedures were followed using monoclonal anti-sulfotyrosine antibody clone Sulfo-1C-A2 (Millipore) generated using a phage display procedure and sulfotyrosine selection peptide antigens in the presence of appropriate positive and negative controls, and modifications visualised using the ECL reagent.

[5] = Fig 5A, CC4-tide, 10 µM PAPS, 0.1 µM TPST1, absence of MgCl2, read-out: IC50 TPST1, panel of nucleotides
[6] = Fig 7C, TPST1 0.1 µM, CC4-tide, 10 µM PAPS, 30 min at 37°C, duplicate, read-out: TPST1 estimated IC50, PKIS inhibitors

- Thermal shift of TPST1 in the presence of Mg2+ ions (in words) (human TPST1 [1]; DSF): abolished
- Thermal shift of TPST1 (in words) (human TPST1 [1]; DSF, 0.5 mM nucleotide): marked stabilisation
- Thermal shift of TPST2 in the presence of Mg2+ ions (in words) (human TPST2): abolished
- Thermal shift of TPST2 (in words) (human TPST2): marked stabilisation
Compound: Nc1ncnc2c1ncn2[C@@H]1O[C@H](COP(=O)(O)OP(=O)(O)O)[C@@H](O)[C@H]1O [ADP, adenosine 5′-diphosphate]

- Thermal shift of TPST1 (in words) (human TPST1 [1]; DSF, 0.5 mM nucleotide): lack of significant thermal shift
- Thermal shift of TPST2 (in words) (human TPST2): lack of significant thermal shift
Compound: Nc1ncnc2c1ncn2[C@@H]1O[C@H](COP(=O)(O)O)[C@@H](O)[C@H]1O [AMP, adenosine 5′-monophosphate]

- IC50 (human TPST1 [2]; [5]): 379 µM
Compound: Nc1ncnc2c1ncn2[C@@H]1O[C@H](COP(=O)(O)OP(=O)(O)OP(=O)(O)O)[C@@H](O)[C@H]1O [ATP, adenosine 5′-triphosphate]

- Thermal shift of TPST1 (in words) (human TPST1 [1]; DSF, 0.5 mM nucleotide): marked stabilisation
- ΔTm TPST1 (human TPST1 [1]; DSF, 0.5 mM nucleotide, relative to buffer control): ~11 °C
- Thermal shift of TPST2 (in words) (human TPST2): marked stabilisation
- Sensitivity of TPST1 inhibition to the concentration of PAPS (human TPST1 [2]; CC4-tide, increasing PAPS, fixed 20 µM PAP or 100 µM ATP, CoA, dephospho-CoA): highly sensitive
- IC50 (human TPST1 [2]; [5]): 87 µM and 87.3 µM
Compound: CC(C)(COP(=O)(O)OP(=O)(O)OC[C@H]1O[C@@H](n2cnc3c(N)ncnc32)[C@H](O)[C@@H]1OP(=O)(O)O)[C@@H](O)C(=O)NCCC(=O)NCCS [CoA, coenzyme A]

- Thermal shift of TPST1 in the presence of Mg2+ ions (in words) (human TPST1 [1]; DSF): abolished
- Thermal shift of TPST1 (in words) (human TPST1 [1]; DSF, 0.5 mM nucleotide): marked stabilisation
- Thermal shift of TPST2 in the presence of Mg2+ ions (in words) (human TPST2): abolished
- Thermal shift of TPST2 (in words) (human TPST2): marked stabilisation
Compound: Nc1nc2c(ncn2[C@@H]2O[C@H](COP(=O)(O)OP(=O)(O)OP(=O)(O)O)[C@@H](O)[C@H]2O)c(=O)[nH]1 [GTP, guanosine 5′-triphosphate]

Continued, molecule first:

Compound: O=C(O)C1=CC(=C(c2ccc(O)c(C(=O)O)c2)c2ccc(O)c(C(=O)O)c2)C=CC1=O [Aurintricarboxylic acid, aurintricarboxylic acid]
- HS2ST inhibition in vitro (in words) [3]: inhibitory activity

Compound: CC(C)(C)c1nc(-c2cccc(NS(=O)(=O)c3c(F)cccc3F)c2F)c(-c2ccnc(N)n2)s1 [Dabrafenib, dabrafenib]
- TPST1 inhibition at 400 μM (human TPST1 [2]; Fig 8A, TPST1 0.1 µM, inhibitor 400 µM, 10 µM PAPS, duplicate): essentially complete TPST1 inhibition
- IC50 (human TPST1 [2]; Fig 8B, TPST1 0.1 µM pre-incubated with compound, 10 µM PAPS, read-out: TPST1 estimated IC50, RAF kinase inhibitors): 269 µM

Compound: O=C1Nc2ccc(I)cc2C1=Cc1cc(Br)c(O)c(Br)c1 [GW305074X]
- IC50 (human TPST1 [2]; [6]): ~5 µM
- Inhibition of GST-CC4-tide tyrosine sulfation by TPST1 (immunoblot, in words) (human TPST1 [4]): low-micromolar inhibitor

Compound: COC(=O)c1ccc2c(c1)C(=Cc1cc(Br)c(O)c(Br)c1)C(=O)N2 [GW405841X]
- IC50 (human TPST1 [2]; [6]): > 40 µM

Compound: O=C1Nc2ccc(C(=O)c3ccco3)cc2C1=Cc1cc(Cl)c(O)c(Cl)c1 [GW406108X]
- TPST1 DSF screen of PKIS, rank of hit (human TPST1 [1]; 20 µM compound, 4% DMSO, hit cut-off ΔTm ± 0.5°C): top compound
- IC50 (human TPST1 [2]; [6]): 16 µM

Compound: Nc1nc(-c2ccc3c(c2)C(=Cc2cc(Br)c(O)c(Br)c2)C(=O)N3)cs1 [GW407323A]
- IC50 (human TPST1 [2]; [6]): 6 µM

Compound: O=C1Nc2ccc(-c3cccnc3)cc2C1=Cc1cc(Br)c(O)c(Br)c1 [GW429374A]
- IC50 (human TPST1 [2]; [6]): 9.8 µM

Compound: CNC(=O)c1cncc(/C=C/c2ccccc2C)c1 [GW445015X]
- inhibition at 20 µM (human TPST1 [2]; at 20 μM, read-out: TPST1 enzyme inhibition, PKIS screen): > 40%
